{"source": "patent US8785430B2", "about": "“Compound that can inhibit UBC13-UEV interactions, pharmaceutical compositions and therapeutic uses” (Consejo Superior de Investigaciones Cientificas, priority 2006, dated 2014)", "key": {"HeLa cells": {"tested_on": "HeLa cells", "experiment": "CyQuant cell count, sensitization to etoposide", "details": "HeLa cells, 100 μM of compound Ia"}, "PC-3 cells": {"tested_on": "PC-3 cells", "experiment": "CyQuant cell count, sensitization to doxorubicin", "type": "cell-based, human", "details": "100 μM of compound Ia", "description": "The addition of 100 μM of Ia reduced the IC50 of doxorubicin to 0.1 μM for PC-3 cells and the IC50 of etoposide to 0.04 μM for HeLa cells. Therefore, the treatment with 100 μM of compound Ia causes a sensitization to the cytotoxic effects of doxorubicin of 5 times (PC-3 cells) and a sensitization to the cytotoxic effects of etoposide of 30 times (HeLa cells)."}, "PC-3.Sluc cells tumors": {"tested_on": "PC-3.Sluc cells tumors", "experiment": "PC-3.Sluc tumor xenografts in Balb/c nu/nu mice, light emission (RLUs)", "type": "in vivo", "description": "For the purpose of determining if Varubin has an in vivo antitumor activity, its effects in mice having tumors formed from PC-3 cells were analyzed. The experimental tumors were formed by means of the intramuscular inoculation of PC-3.Sluc cells. The latter are PC-3 prostate cells in which they have been integrated by means of transfecting plasmid pRC/CMV-luc, which expresses the firefly (Photinus pyralis) luciferase gene in mammalian cells q. The incubation of the PC-3.luc cells with D-luciferin, a luciferase substrate, produces light, which can be quantified in an absolute manner (number of photons) either by means of a luminometer or by means of detection with a CCD (charge-coupled device) camera. The latter process further allows representing in real time images of the location of the tumor cells in the inoculated animals, as well as the tumor size, since the intensity of the light (number of photons) emitted in the presence of luciferin is directly proportional to the number of PC-3.luc cells.\nFor these studies, 24 male Balb/c nu/nu mice (Charles River Laboratories) of an age of 6 weeks were used. These animals were kept in a pathogen-free environment at all times, having been kept in the animal housing facility for 1 week after they were received, before the experimental handling. After being anesthetized by means of an intraperitoneal (i.p.) injection of a mixture at equal parts of 6 mg/Kg of droperidol (Roche, Basel, Switzerland) and 12 mg/Kg of midazolam (Rovi S.A, Madrid, Spain), intramuscular (i.m.) injections were performed both in the right leg and in the left leg of each animal of 1×10^6 PC-3.Sluc cells, suspended in 100 μL of fetal bovine serum-free culture medium. The development of tumors in the inoculation sites was allowed for 2 weeks, after which a first measurement of photons emitted was made and a first capture of images with an ORCA-2BT Imaging System instrument (Hammamatsu Photonics) provided with a C4742-98-LWG-MOD model CCD camera (cooled at −80° C.) was done at a resolution of 512×512 pixels. […] Four minutes later, photons were detected and quantified for 5 minutes in the instrument described above. […] The quantification and the analysis of photons were performed with the aid of the image analysis program WASABI (Hamamatsu Photonics). […] For the graphic representations, the quantitative data (RLUs) were standardized, for each tumor, in relation to the RLUs of day 0 of treatment.\nThe 24 mice, having luminescent tumors in both legs, were included in 4 experimental groups: (1) Control group, in which an intravenous (i.v.) injection of 100 μL of phosphate buffered saline pH 7.4 (PBS) and 50 μL of intratumoral (i.t.) PBS was performed. […] The light emission of the tumors was analyzed throughout 56 days from the start of the treatment."}, "[1]": {"tested_on": "S. cerevisiae Δrev3 mutants", "experiment": "Survival of S. cerevisiae Δrev3 mutants after ultraviolet radiation or MMS", "type": "cell-based, Saccharomyces cerevisiae", "details": "100 μM; UV or 0.03% MMS", "description": "To determine if compounds Ia and Ib inhibit the function of Ubc13p-Mms2p, their capacity to mimic in S. cerevisiae the DNA repair phenotypes generated by the null mutation of ubc13 was evaluated. Thus, mutant strains in RAD6 or REV3 and the parent strain thereof (control) were used in viability assays after the exposure to ultraviolet radiation or MMS. The genotypes of the strains used are the following:\n3) Strain Δrev3: MAT at his3Δ1 leu2Δ0 lys2Δ0 ura3Δ0 rev3::kanMX4\nCells were inoculated in liquid cultures with YPD medium overnight at 30° C., until reaching the log phase of growth. For the treatments with ultraviolet radiation, aliquots of cells, grown in the presence or absence of 100 μM of compounds Ia or Ib were irradiated in a Stratalinker instrument (Stratagene) at the energies indicated in FIGS. 7 and 8. For the treatment with the mutagenic agent MMS, aliquots of cells grown or not in medium with 100 μM of compounds Ia or Ib were incubated, 0.03% MMS being added, with subsequent incubation for the times indicated in FIGS. 7 and 8. After either treatment, 500 cells were seeded in plates with YPD medium, counting the colonies after 2 days."}}}
{"smiles": "NC(=O)CN(CCc1ccccn1)C(=O)C1CC(=O)N(CCc2ccc(F)cc2)CC(=O)N1CCc1ccc(F)cc1", "note": "(stereo not drawn) [Ia, N-aminocarbamoylmethyl-N-(2′-(2″pyridyl)ethyl)-1,4-bis[2′-(4″-fluorophenyl)ethyl]-3,7-dioxo-[1,4]diazepane-5-carboxamide]", "values": [{"measurement": "sensitization to the cytotoxic effects of etoposide", "setting": "HeLa cells", "result": 30, "unit": "times"}, {"measurement": "sensitization to the cytotoxic effects of doxorubicin", "setting": "PC-3 cells", "result": 5, "unit": "times"}, {"measurement": "antitumor activity in tumors transplanted in nu/nu mice", "setting": "PC-3.Sluc cells tumors; 100 μM, intramuscular injection", "result": "shows antitumor activity"}, {"measurement": "tumor growth (RLUs)", "setting": "PC-3.Sluc cells tumors; Varubin alone, 100 μM in 50 μL of PBS, i.t./i.m., twice a week, 56 days", "result": "very limited growth"}, {"measurement": "tumor growth (RLUs), combined treatment", "setting": "PC-3.Sluc cells tumors; doxorubicin i.v. 5 mg/Kg once a week plus Varubin 100 μM twice a week, 56 days", "result": "did not grow significantly"}, {"measurement": "sensitization of Δrev3 cells to UV radiation or exposure to MMS", "setting": "[1]", "result": "caused a higher sensitization of the cells"}]}
